The source of these data is publication PMC11181338 (Journal of Medicinal Chemistry, 2024).

The test system of one data set is hERG channels. Conditions: cited from earlier work; for % of hERG current blocked: 10 μM.
Data set [1] has as its target T1, human KCNT1 (Homo sapiens, UniProt Q5JUK3).
T1 sequence (Q5JUK3 1-1256 isoform Q5JUK3-2): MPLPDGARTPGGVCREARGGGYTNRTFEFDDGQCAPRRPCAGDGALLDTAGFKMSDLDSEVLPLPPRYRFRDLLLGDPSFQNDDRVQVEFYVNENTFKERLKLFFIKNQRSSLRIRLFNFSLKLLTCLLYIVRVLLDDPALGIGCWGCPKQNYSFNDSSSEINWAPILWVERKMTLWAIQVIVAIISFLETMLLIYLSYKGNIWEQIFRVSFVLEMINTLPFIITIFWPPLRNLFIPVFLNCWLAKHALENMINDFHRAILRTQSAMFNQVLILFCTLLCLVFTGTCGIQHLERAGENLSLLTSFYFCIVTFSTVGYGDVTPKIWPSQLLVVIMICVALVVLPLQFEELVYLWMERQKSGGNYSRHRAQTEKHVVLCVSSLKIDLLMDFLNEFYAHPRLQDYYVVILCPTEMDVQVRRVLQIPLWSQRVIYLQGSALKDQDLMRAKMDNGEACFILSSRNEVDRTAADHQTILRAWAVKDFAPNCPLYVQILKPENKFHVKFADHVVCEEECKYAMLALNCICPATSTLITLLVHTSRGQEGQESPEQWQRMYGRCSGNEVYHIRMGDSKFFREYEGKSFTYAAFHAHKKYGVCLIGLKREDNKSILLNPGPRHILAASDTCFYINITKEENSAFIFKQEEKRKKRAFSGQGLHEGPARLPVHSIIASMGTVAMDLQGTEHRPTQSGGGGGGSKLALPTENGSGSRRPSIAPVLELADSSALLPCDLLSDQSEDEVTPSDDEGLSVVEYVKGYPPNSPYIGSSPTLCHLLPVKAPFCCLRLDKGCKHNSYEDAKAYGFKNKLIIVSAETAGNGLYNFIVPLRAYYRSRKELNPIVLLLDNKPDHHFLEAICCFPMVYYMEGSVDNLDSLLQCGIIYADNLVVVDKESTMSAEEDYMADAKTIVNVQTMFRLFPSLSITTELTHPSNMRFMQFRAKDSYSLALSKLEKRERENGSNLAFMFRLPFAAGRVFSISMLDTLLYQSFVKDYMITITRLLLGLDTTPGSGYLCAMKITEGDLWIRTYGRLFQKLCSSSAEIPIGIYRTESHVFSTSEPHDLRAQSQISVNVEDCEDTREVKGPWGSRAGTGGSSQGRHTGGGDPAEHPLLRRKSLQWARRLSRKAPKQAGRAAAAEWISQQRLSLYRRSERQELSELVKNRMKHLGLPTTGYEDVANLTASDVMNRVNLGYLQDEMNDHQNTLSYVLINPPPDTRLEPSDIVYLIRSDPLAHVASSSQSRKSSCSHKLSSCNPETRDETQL
In words: FluxOR thallium. It is filed as cell-based.

Data set [2] has as its target T1, human KCNT1. As to the kind of experiment: Whole-cell patch-clamp, CHO cells transiently transfected with hKCNT1. It is filed as cell-based. To be noted: 10 μM.
Another data set has as its target hERG (Homo sapiens, UniProt Q12809). As to the kind of experiment: Whole-cell patch-clamp, CHO cells transiently transfected with hERG. Conditions: for inhibition at 10 µM: human, pH 7.4, % of hERG inhibition, tail currents at −100 mV; for hERG-blocking activity: 10 μM.
A short description of a further data set: Human plasma stability. The class given is in vitro ADME.
The nature of the next data set: Plasma protein binding. To be noted: 10 μM, 4 h, 37 °C. It is filed as in vitro ADME.
Data set [3] can be described thus: In vitro drug metabolism using human liver microsomes. Conditions: HLM.
In the next data set the target is T2, human KCNT2 (Homo sapiens, UniProt Q6UVM3).
T2 sequence (Q6UVM3 1-1135): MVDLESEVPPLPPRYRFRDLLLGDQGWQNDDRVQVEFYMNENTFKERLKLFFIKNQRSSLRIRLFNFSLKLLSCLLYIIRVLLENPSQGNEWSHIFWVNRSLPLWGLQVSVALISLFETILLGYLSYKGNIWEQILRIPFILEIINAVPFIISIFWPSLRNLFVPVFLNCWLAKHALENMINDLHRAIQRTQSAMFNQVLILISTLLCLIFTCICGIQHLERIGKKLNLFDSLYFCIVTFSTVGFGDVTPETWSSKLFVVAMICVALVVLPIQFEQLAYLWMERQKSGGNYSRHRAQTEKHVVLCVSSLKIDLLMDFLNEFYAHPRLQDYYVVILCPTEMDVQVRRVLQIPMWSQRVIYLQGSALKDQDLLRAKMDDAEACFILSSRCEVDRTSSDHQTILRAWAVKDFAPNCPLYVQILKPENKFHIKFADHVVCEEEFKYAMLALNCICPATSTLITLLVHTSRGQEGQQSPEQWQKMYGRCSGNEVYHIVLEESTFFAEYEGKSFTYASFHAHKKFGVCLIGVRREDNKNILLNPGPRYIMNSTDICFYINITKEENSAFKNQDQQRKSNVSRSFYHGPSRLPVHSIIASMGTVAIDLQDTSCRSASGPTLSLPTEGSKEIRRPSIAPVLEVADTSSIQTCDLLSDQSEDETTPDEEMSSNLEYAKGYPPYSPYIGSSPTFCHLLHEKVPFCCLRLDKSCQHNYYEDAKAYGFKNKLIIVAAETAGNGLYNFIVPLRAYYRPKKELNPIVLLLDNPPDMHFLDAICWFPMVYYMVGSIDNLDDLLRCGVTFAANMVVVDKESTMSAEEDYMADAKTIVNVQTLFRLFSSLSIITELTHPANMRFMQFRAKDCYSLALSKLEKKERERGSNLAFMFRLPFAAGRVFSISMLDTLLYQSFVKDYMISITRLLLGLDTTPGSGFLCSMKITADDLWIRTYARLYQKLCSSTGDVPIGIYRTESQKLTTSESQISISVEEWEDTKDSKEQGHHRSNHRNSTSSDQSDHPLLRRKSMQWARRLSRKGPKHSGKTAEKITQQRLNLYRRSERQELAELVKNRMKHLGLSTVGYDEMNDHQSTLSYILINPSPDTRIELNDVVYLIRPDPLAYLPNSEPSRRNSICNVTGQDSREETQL
As to the kind of experiment: Whole-cell patch-clamp, HEK cells expressing KCNT2. To be noted: KCNT2 currents. It is filed as cell-based.

A further data set relates to untransfected CHO cells. As to the kind of experiment: FluxOR Tl+ fluorescence assay in untransfected CHO cells. Conditions: 10 μM. The class given is cell-based, Chinese Hamster.
For the next data set, the system named is KCNT1. Conditions: read-out: KCNT1 IC50; cited from earlier work.
For a further data set, the system named is KCNT2. To be noted: up to 10 μM, Tl+ flux assay; cited from earlier work.
The subject of data set [4] is KCNT1 versus KCNT2 channels. To be noted: cited from earlier work.

Chain of hERG (Q12809 whole entry): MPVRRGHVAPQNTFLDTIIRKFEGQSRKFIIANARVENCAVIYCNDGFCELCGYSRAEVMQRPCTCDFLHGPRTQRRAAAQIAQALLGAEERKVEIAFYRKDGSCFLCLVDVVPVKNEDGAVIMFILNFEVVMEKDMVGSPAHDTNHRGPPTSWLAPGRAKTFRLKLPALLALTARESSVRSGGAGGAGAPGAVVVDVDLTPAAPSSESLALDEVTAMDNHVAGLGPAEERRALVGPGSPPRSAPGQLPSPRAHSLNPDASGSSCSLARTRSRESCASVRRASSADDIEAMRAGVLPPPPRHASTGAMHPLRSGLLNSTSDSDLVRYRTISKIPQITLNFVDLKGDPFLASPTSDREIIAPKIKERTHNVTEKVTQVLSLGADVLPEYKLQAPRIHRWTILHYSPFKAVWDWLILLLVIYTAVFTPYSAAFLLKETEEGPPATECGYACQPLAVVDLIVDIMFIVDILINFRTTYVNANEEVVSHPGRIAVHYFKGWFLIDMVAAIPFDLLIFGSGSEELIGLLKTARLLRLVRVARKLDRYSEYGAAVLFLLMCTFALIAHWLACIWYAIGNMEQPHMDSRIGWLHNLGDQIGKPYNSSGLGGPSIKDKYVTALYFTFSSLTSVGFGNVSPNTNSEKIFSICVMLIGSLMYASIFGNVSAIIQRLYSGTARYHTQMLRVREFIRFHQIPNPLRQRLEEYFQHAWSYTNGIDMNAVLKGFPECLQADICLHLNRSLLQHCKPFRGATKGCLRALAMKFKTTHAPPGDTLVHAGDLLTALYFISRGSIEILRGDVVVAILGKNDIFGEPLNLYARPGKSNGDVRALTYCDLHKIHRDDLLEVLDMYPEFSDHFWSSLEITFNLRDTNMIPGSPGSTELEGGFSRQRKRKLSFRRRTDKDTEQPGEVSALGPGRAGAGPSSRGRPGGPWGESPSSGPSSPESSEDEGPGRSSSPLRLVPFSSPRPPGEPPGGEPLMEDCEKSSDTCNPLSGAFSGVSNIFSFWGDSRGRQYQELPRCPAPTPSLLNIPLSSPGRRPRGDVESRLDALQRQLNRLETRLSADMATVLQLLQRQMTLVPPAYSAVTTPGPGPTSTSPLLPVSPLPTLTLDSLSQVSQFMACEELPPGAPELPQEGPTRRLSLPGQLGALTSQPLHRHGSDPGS

On to `O=C(Nc1cccc(C(F)(F)F)c1)c1ccc2nc(N3C(=O)c4ccccc4C3=O)sc2c1` [BC12], for which the “% of hERG current blocked” value in the data set with hERG channels is recorded as 15–20%.
Turning to `Cc1cc(O)ccc1N/C=C/C(=O)c1ccccc1` [BC13], in the data set on hERG channels, the “% of hERG current blocked” value is given as 15–20%.
`CC(C)(C)CNC(=O)Nc1ccc2c(c1)CCN2Cc1ccc(F)cc1` [CPK4, 1-[1-(4-Fluorobenzyl)indolin-5-yl]-3-neopentylurea]: the “effect on the fluorescent signal” value at human KCNT1 [1] (10 μM, followed by LOX 10 μM) was “markedly reduced the fluorescent signal”. Further, the “blocking time constant (τon)” value at human KCNT1 [2] was found to be 49.0 ± 9.6 s. The inhibition at 10 µM against hERG is 30 to 40%.
In the case of `Oc1ccc2ccccc2c1CNCCc1c[nH]c2ccccc12` [CPK13, 1-{[(2-(1H-Indol-3-yl)ethyl]amino)methyl}naphthalen-2-ol], the “blocking time constant (τon)” value on human KCNT1 [2] turned out to be 17.7 ± 2.3 s. In addition, the inhibition at 10 µM at hERG was in the range of 30 to 40%.
Consider `CCOC(=O)[C@@H]1CS[C@@]2(C(=O)Nc3ccc(Br)cc32)N1C(=O)c1ccc(Cl)cc1` [CPK16, (2′S,4′R)-Ethyl 5-bromo-3′-(4-chlorobenzoyl)-2-oxospiro[indoline-3,2′-thiazolidine]-4′-carboxylate], for which the “hERG-blocking activity” value at hERG is “devoid of hERG-blocking activity”.
In turn, `O=C(NCc1ccccc1)[C@H](Cc1c[nH]c2ccccc12)NCc1ccc(Oc2ccccc2)cc1` [CPK18, (S)-N-Benzyl-3-(1H-indol-3-yl)-2-[(4-phenoxybenzyl)amino]propanamide] registered a recovery at 120 min in the data set “Human plasma stability” of no less than 80%. Besides, the “binding to plasma proteins” value in the data set “Plasma protein binding” came out at 99%. Also, in [3], the clearance category result is “high”. Further, the CLint in vivo in data set [3] (NADPH + UDPGA, scaled with human PBSF) is less than 80 mL min^–1 kg^–1. Moreover, on hERG, the “hERG-blocking activity” value is “devoid of hERG-blocking activity”.
On to `O=S(=O)(Nc1ccc2c(c1)CCN2Cc1ccc(C(F)(F)F)cc1C(F)(F)F)C1CCCCC1` [CPK20, N-{1-[2,4-Bis(trifluoromethyl)benzyl]indolin-5-yl}cyclohexanesulfonamide], for which the “Hill slope (k values)” value at human KCNT2 is on record as −0.57 ± 0.09 mV/efold. The compound further gave a recovery at 120 min in “Human plasma stability” of no less than 80%. Also, in “Plasma protein binding”, the “binding to plasma proteins” value stood at 99%. For the same compound, the clearance category entry in data set [3] was “low clearance”. Also, the CLint in vitro in data set [3] (NADPH + UDPGA) is listed as less than 1 mL min^–1 kg^–1. For the same compound, at hERG, the “hERG-blocking activity” value is reported as “devoid of hERG-blocking activity”.
At human KCNT1 [1], `CN1CCN(C2=Nc3ccccc3Oc3ccc(Cl)cc32)CC1` [LOX, loxapine] returned an EC50 of 4 ± 1.7 µM. The “slope of the Tl+ fluorescence curve” value came to 0.041 ± 0.006 on human KCNT1 [1] (10 μM, 15 min preincubation, KCNT1 stably transfected CHO cells) and 0.0007 ± 0.0006 in the data set on untransfected CHO cells.
Take `C=C[C@H]1C[N@@]2CC[C@H]1C[C@@H]2[C@@H](O)c1ccnc2ccc(OC)cc12` [QND, quinidine]: the IC50 in the data set on KCNT1 is 80 to 100 µM; in the data set with hERG channels (read-out: hERG IC50, heterologously expressed hERG channels) it was […].
Regarding `COc1ccc(Cl)cc1NC(=O)CN1CCN(S(=O)(=O)N2CCC(C)CC2)CC1` [VU0606170], in the data set on KCNT2, the “KCNT2 blocking effect” value is recorded as “no KCNT2 blocking effect”.
As for `CCCCCCC[N+](CC)(CC)CCCCc1ccc(Cl)cc1` [clofilium], the “inhibitory potency KCNT1 versus KCNT2” value in [4] was “stronger inhibitory potency for KCNT1 versus KCNT2 channels”.
